{
  "source": "patent US20250304620A1",
  "about": "“ANTIMICROBIAL PEPTIDE AND APPLICATION THEREOF” (priority 2023, published 2025)",
  "key": {"[1]": {"system": "Candida albicans ATCC MYA-2876", "type": "cell-based", "in_short": "(§1)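 Susceptibility testing used the CLSI-standard microdilution method with twofold serial dilutions of the antimicrobial peptides to give MIC values, replicated 5 times in parallel.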"}, "Candida krusei ATCC 6258": {"system": "Candida krusei ATCC 6258", "type": "cell-based", "in_short": "as §1"}, "[2]": {"system": "Candida tropicalis ATCC 750", "type": "cell-based", "in_short": "as §1"}, "[3]": {"system": "Corynebacterium ATCC 7715", "type": "cell-based", "in_short": "as §1"}, "Enterococcus ATCC 29212": {"system": "Enterococcus ATCC 29212", "type": "cell-based", "in_short": "as §1"}, "[4]": {"system": "Escherichia coli ATCC 25922", "type": "cell-based", "in_short": "as §1"}, "[5]": {"system": "Klebsiella pneumoniae ATCC 700603", "type": "cell-based", "in_short": "as §1"}, "[6]": {"system": "Pseudomonas aeruginosa ATCC 27853", "type": "cell-based", "in_short": "as §1"}, "[7]": {"system": "Serratia marcescens ATCC 29021", "type": "cell-based", "in_short": "as §1"}, "[8]": {"system": "Trichophyton ATCC MYA-4438", "type": "cell-based", "in_short": "as §1"}, "[9]": {"system": "Shigella flexneri ATCC 12022", "experiment": "MIC against clinically common bacterial strain", "type": "cell-based", "in_short": "as §1"}, "[10]": {"system": "Methicillin-resistant Staphylococcus aureus (MRSA)", "type": "cell-based", "conditions": "Methicillin-resistant", "in_short": "(§2)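 Peptides were serially diluted twofold following CLSI susceptibility standards, clinical resistant bacteria were exposed, and the MIC was recorded; five parallel repeats.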"}, "[11]": {"system": "carbapenem-resistant Escherichia coli (CREC)", "type": "cell-based", "conditions": "carbapenem-resistant (CREC)", "in_short": "as §2"}, "[12]": {"system": "carbapenem-resistant Klebsiella pneumoniae (CRKP)", "type": "cell-based", "conditions": "carbapenem-resistant (CRKP)", "in_short": "as §2"}, "[13]": {"system": "carbapenem-resistant Pseudomonas aeruginosa (CRPA)", "type": "cell-based", "conditions": "carbapenem-resistant (CRPA)", "in_short": "as §2"}, "[14]": {"system": "vancomycin-resistant Enterococcus (VRE)", "type": "cell-based", "in_short": "as §2"}, "[15]": {"system": "Staphylococcus aureus (NRS 384)", "conditions": "NRS 384, 3 h", "protocol": "Trypsin (250 U/mg, pH=8.0) and AMPs (LV-1 to LV-30) were mixed in a ratio of 1:10 (w/w) and added to a reaction buffer (0.2 M sodium phosphate, 1 mM CaCl2), pH 7.5), and then incubated at 37° C. for 3 h."}, "[16]": {"system": "Pseudomonas aeruginosa ATCC 27853", "experiment": "Injectable formulations on mice infected with peritonitis", "type": "in vivo, ICR mice", "conditions": "1 mg/kg via tail vein, twice a day for 3 days, n = 10", "in_short": "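ICR mice of both sexes (10 per group) infected intraperitoneally with 0.2 mL P. aeruginosa ATCC 27853 at 1×10^9 CFU/mL. Injectable formulations dosed by body weight via tail vein twice daily for 3 days; deaths and survival time recorded over 14 d.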"}, "[17]": {"system": "Escherichia coli ATCC 25922", "experiment": "Oral formulations on mice with systemic bacterial infection", "type": "in vivo, ICR mice", "conditions": "1 mg/kg gavage, three times a day for 7 days, n = 10", "in_short": "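ICR mice of both sexes, 10 per group, infected i.p. with 0.2 mL E. coli ATCC 25922 at 1×10^7 CFU/mL. Compounds gavaged by body weight immediately after infection, three times daily for 7 days; deaths and survival time recorded over 14 d observation.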"}},
  "note": "Marks after values point to notes of the source that are not given here. Non-standard residues stand in square brackets, D forms with d. Residues, ends and D or L forms follow the SMILES beside them. dPhe(3,4-Cl2) = N[C@H](Cc1ccc(Cl)c(Cl)c1)C(=O)O",
  "data": [
    {"smiles": "CC(=O)N[C@H](CCCNC(=N)N)C(=O)N[C@H](CCCCN)C(=O)N[C@H](CC(C)C)C(=O)N[C@H](CC(C)C)C(=O)N[C@H](Cc1ccc(Cl)c(Cl)c1)C(=O)N[C@H](CCCCN)C(=O)N[C@H](CC(C)C)C(=O)N[C@H](CCCCN)C(=O)N[C@H](Cc1ccc(Cl)c(Cl)c1)C(=O)N[C@H](CCCCN)C(=O)N[C@H](CCCNC(=N)N)C(N)=O", "note": "[LV-8] (Ac-[dR][dK][dL][dL][dPhe(3,4-Cl2)][dK][dL][dK][dPhe(3,4-Cl2)][dK][dR]-NH2)", "values": [
      {"measurement": "MIC Candida albicans ATCC MYA-2876", "setting": "[1]", "result": 16, "unit": "µg/mL"},
      {"measurement": "MIC Candida krusei ATCC 6258", "setting": "Candida krusei ATCC 6258", "result": 16, "unit": "µg/mL"},
      {"measurement": "MIC Candida tropicalis ATCC 750", "setting": "[2]", "result": 16, "unit": "µg/mL"},
      {"measurement": "MIC Corynebacterium ATCC 7715", "setting": "[3]", "result": 2, "unit": "µg/mL"},
      {"measurement": "MIC Enterococcus ATCC 29212", "setting": "Enterococcus ATCC 29212", "result": 2, "unit": "µg/mL"},
      {"measurement": "MIC Escherichia coli ATCC 25922", "setting": "[4]", "result": 2, "unit": "µg/mL"},
      {"measurement": "MIC Klebsiella pneumoniae ATCC 700603", "setting": "[5]", "result": 4, "unit": "µg/mL"},
      {"measurement": "MIC Pseudomonas aeruginosa ATCC 27853", "setting": "[6]", "result": 2, "unit": "µg/mL"},
      {"measurement": "MIC Serratia marcescens ATCC 29021", "setting": "[7]", "result": 2, "unit": "µg/mL"},
      {"measurement": "MIC Trichophyton ATCC MYA-4438", "setting": "[8]", "result": 8, "unit": "µg/mL"},
      {"measurement": "MIC Shigella flexneri ATCC 12022", "setting": "[9]", "result": 4, "unit": "µg/mL"},
      {"measurement": "MIC MRSA", "setting": "[10]", "result": 4, "unit": "µg/mL"},
      {"measurement": "MIC CREC", "setting": "[11]", "result": 4, "unit": "µg/mL"},
      {"measurement": "MIC CRKP", "setting": "[12]", "result": 2, "unit": "µg/mL"},
      {"measurement": "MIC CRPA", "setting": "[13]", "result": 8, "unit": "µg/mL"},
      {"measurement": "MIC VRE", "setting": "[14]", "result": 8, "unit": "µg/mL"},
      {"measurement": "Trypsin MIC", "setting": "[15]", "result": 1, "unit": "µg/mL"},
      {"measurement": "Number of mice that died on each day after infection: day 1", "setting": "[16]", "result": 1, "unit": "Mouse"},
      {"measurement": "Number of mice that died on each day after infection: day 2", "setting": "[16]", "result": 1, "unit": "Mouse"},
      {"measurement": "Number of mice that died on each day after infection: day 3", "setting": "[16]", "result": 0, "unit": "Mouse"},
      {"measurement": "Number of mice that died on each day after infection: day 4", "setting": "[16]", "result": 1, "unit": "Mouse"},
      {"measurement": "Number of mice that died on each day after infection: day 5", "setting": "[16]", "result": 1, "unit": "Mouse"},
      {"measurement": "Average survival times (Days)", "setting": "[16]; observed for 14 d", "result": "9.6*** Days"},
      {"measurement": "Number of mice that died on each day after infection: day 4", "setting": "[17]", "result": 2, "unit": "Mouse"},
      {"measurement": "Number of mice that died on each day after infection: day 5", "setting": "[17]", "result": 1, "unit": "Mouse"},
      {"measurement": "Number of mice that died on each day after infection: day 6", "setting": "[17]", "result": 0, "unit": "Mouse"},
      {"measurement": "Number of mice that died on each day after infection: day 7", "setting": "[17]", "result": 2, "unit": "Mouse"},
      {"measurement": "Number of mice that died on each day after infection: day 8", "setting": "[17]", "result": 0, "unit": "Mouse"},
      {"measurement": "Average survival times (Days)", "setting": "[17]; observed for 14 d", "result": "9.7** Days"}
    ]}
  ]
}
